# Tested on: male participants
# Assay: Diastolic blood pressure pre- and post-treatment, 8 week EGCG study stratified by COMT genotype
# Type: in vivo, human
# Conditions: 800 mg/day EGCG, 8 weeks
# Source text: This was a double blind, single centre, randomised and parallel design study. A total of 95 male participants were recruited on to the study using the following criteria: • healthy (no significant history or current disease or medication) • non-diabetic • non-smokers • aged 40-65 years • Body Mass Index >28 <38 The study population were randomly assigned to one of two treatment groups. Each group was balanced for age and insulin resistance (homeostatic model of insulin resistance HOMAir). HOMAir was measured from mean fasting plasma glucose values as described by Mathews et al, Diabetologia (1985), 28, 412-419. 75 subjects consented to genotype analysis for the COMT polymorphism rs4680. The active treatment was 800 mg/day EGCG and the placebo treatment 800 mg/day lactose. Treatments were administered twice daily with food for 8 weeks, one 400 mg capsule in the morning and one 400 mg capsule in the evening. The diastolic blood pressure was measured pre- and post-treatment. During the three days before pre- and post-treatment study visits, participants refrained from exercise, alcohol and ate their normal diet which consisted of at least 150 g carbohydrates. Blood pressure was measured manually on the upper arm using a sphygmomanometer (UA-787, A and D Medical). Three measurements were taken at 5 minute intervals whilst participants rested in a semi-recumbent position and with participants rested for at least 5 minutes before the first measurement. All three measurements were used to derive mean blood pressure values. Non-smoking status and alcohol abstinence were verified using Micro CO meter (Micro Medical Ltd) and AlcoMate Pro (AK Solutions) monitors, respectively. All equipment was calibrated before use. The data was stratified based on the derived COMT genotype and analysed. For each treatment group and genotype subset the mean and standard deviation for the change from baseline to endpoint was calculated. Paired t-tests were used to assess whether the change from baseline was statistically significant (p<0.05).
compound,measurement,setting,value
"O=C(O[C@@H]1Cc2c(O)cc(O)cc2O[C@@H]1c1cc(O)c(O)c(O)c1)c1cc(O)c(O)c(O)c1 [EGCG, epigallocatechin gallate]","diastolic blood pressure, change compared to baseline","AA (low activity) COMT genotype, paired t-test p=0.036",Statistically significant reductions
same,"LSMean change from baseline in diastolic blood pressure, controlled for baseline","AA COMT genotype, p=0.044",statistically significant reduction
same,"diastolic blood pressure, change compared to baseline","AG (intermediate activity) COMT genotype, paired t-test p=0.006",Statistically significant reductions
same,"LSMean change from baseline in diastolic blood pressure, controlled for baseline","AG COMT genotype, p=0.012",statistically significant reduction
same,"diastolic blood pressure, change compared to baseline","GG (high activity) COMT genotype, paired t-test p=0.647",not statistically significant
same,"LSMean change from baseline in diastolic blood pressure, controlled for baseline",GG COMT genotype,not the GG group
